Test results taken from patent US5541187A, “6-heterocycyclyl pyrazolo[3,4-d]pyrimidin-4-ones and compositions and method of use thereof” (Sterling Winthrop Inc., priority 1993, dated 1996).
Several values for one entry are separate records, joined by “and”; a condition that tells them apart may be missing. Identical values can stand only once. Counter-ions that a name gives are not always drawn.

Columns and labels:
cGMP-PDE I = cGMP-PDE I inhibitory activity (cyclic nucleotide hydrolysis, isolated PDE isozyme); type: biochemical, various animal species and man; conditions: for IC50: values marked * are from two separate experimental runs
Procedure: Multiple isozymic forms of cyclic nucleotide phosphodiesterase (PDE) have been identified in mammalian cells. […] Elevation of intracellular cGMP in vascular smooth muscle triggers a cascade of events that leads to a reduction in muscle tone while elevations in renal tubule cell cGMP stimulates natriuresis and diuresis. Vascular smooth muscle and renal cells contain a phosphodiesterase isozyme that has a low Km (1 μM) for the hydrolysis of cGMP. This isozyme has been referred to as the cGMP-PDE or cGMP-PDE I since it elutes from an anion-exchange sepharose resin in the first peak of PDE activity at a sodium acetate concentration between 150-200 mM. Thus inhibition of the cGMP-PDE isozyme is a viable subcellular mechanism by which increases in cGMP can produce a reduction in total peripheral resistance and a stimulation of natriuresis and diuresis. The development of cGMP-PDE inhibitors represents an approach for the discovery of agents useful for treating heart failure and hypertension. For example, compounds having high inhibitory potency for the cGMP-PDE are expected to lower blood pressure and induce natriuresis and diuresis.
The cGMP-PDE and other PDE isozymes were isolated from cardiovascular tissues (heart and aorta) of various animal species and man by anion-exchange and affinity chromatography as described by Silver et al., Sec. Messeng. Phos. 13:13-25, 1991; PDE activity, in the presence and absence of test compounds was determined essentially as described by Thompson et al., Adv. Cyclic Nucleotide Res. 10:69-92. To determine the potency and selectivity of compounds as PDE inhibitors, compounds are screened for their effect on cyclic nucleotide hydrolysis at 10 μM. If ≥50% inhibition of PDE activity is observed, an IC50 value (concentration of compound causing 50% reduction in PDE activity) and corresponding 95% confidence intervals are generated. The IC50 values are calculated from concentration-response curves as described by Tallarida and Murray, Manual of Pharmacologic Calculations with Computer Programs, Procedure 8, Graded Dose-response, pp. 14-19, Springer-Verlag, N.Y., 1981.

[1] = tested on: Spontaneously hypertensive rats (SHR); assay: Antihypertensive activity in conscious spontaneously hypertensive rats (SHR), iv; type: in vivo; conditions: Rattus norvegicus, 5 min; for ED25: read-out: ED25 (mean arterial pressure)
Procedure: After a 2 day recovery from surgery, three baseline blood pressure measurements were made at 5 min intervals in conscious SHR. Compounds to be tested or vehicle were then administered intravenously in a dose-dependent manner (0.3-10 mg base/kg) while arterial pressure was recorded continuously on a polygraph. The mean arterial pressure response was measured 5 minutes after the administration of each dose of the test compound and the next dose given in a cumulative dose fashion. The response to each dose of the test compound was calculated as the difference from the mean of the three baseline measurements.

IC50 (cGMP-PDE I)	Structure (SMILES)	Percent Inhibition cGMP-PDE I (cGMP-PDE I; 1 μM)	Percent Inhibition cGMP-PDE I (cGMP-PDE I; 10 μM)	further results
150 nM	CCc1nn(C2CCCC2)c2nc(-c3ccnc(OCCN4CCOCC4)c3)[nH]c(=O)c12 [Example 124c, hydrate]	86%		Percent Inhibition cGMP-PDE I (cGMP-PDE I; 0.01 μM): 19%; Percent Inhibition cGMP-PDE I (cGMP-PDE I; 0.1 μM): 50%; change in vivo at 3 mg/kg ([1]; 3 mg/kg, 5 minutes after dose, cumulative dosing, read-out: % change in mean arterial pressure): -14%; change in vivo at 10 mg/kg ([1]; 10 mg/kg, 5 minutes after dose, cumulative dosing, read-out: % change in mean arterial pressure): -24%; ED25 [1]: 10.1 mg/kg
450 nM and 370 nM	CCc1nn(C2CCCC2)c2nc(-c3ccncc3)[nH]c(=O)c12 [Example 75]			ED25 [1]: 1.7 mg/kg
380 nM	Cc1nn(C(C)(C)C)c2nc(-c3ccncc3)[nH]c(=O)c12 [Example 93]			ED25 [1]: 6.5 mg/kg
	CC(C)(C)n1nc(Cc2ccccc2)c2c(=O)[nH]c(-c3ccncc3)nc21 [Example 90]			change in vivo at 1 mg/kg ([1]; 1 mg/kg, 5 minutes after dose, cumulative dosing, read-out: % change in mean arterial pressure): -6%
	CCN(CC)CCCn1nc(C)c2c(=O)[nH]c(-c3ccncc3)nc21 [Example 99, 1-(3-Diethylaminopropyl)-3-methyl-6-(4-pyridyl)pyrazolo[3,4-d]pyrimidin-4-one. 1/2 hydrate]	0%	12%	
	Cc1nn(C2CCS(=O)(=O)C2)c2nc(-c3ccncc3)[nH]c(=O)c12 (stereo not shown) [Example 18c, 1-(3-Tetrahydrothienyl-1,1-dioxide)-3-methyl-6-(4-pyridyl)pyrazolo[3,4-d]pyrimidin-4-one methanesulfonate]	0%	45%	
	Cc1nn(Cc2ccc(C#N)cc2)c2nc(-c3ccncc3)[nH]c(=O)c12 [Example 85]		42%	
	Cc1nn(Cc2ccccc2)c2nc(-c3ccncc3)[nH]c(=O)c12 [Example 77]	13%	80%	
460 nM and 560 nM	Cc1nn(C2CCCCC2)c2nc(-c3ccncc3)[nH]c(=O)c12 [Example 3e, 1-Cyclohexyl-3-methyl-6-(4-pyridyl)-pyrazolo[3,4-d]pyimidin-4-one]			
	Cc1[nH]n(Cc2cccc(C(N)=O)c2)c2nc(-c3ccncc3)nc(=O)c1-2 [Example 113, 1-(3-Carbamoylphenylmethyl)-3-methyl-6-(4-pyridyl) pyrazolo[3,4-d]pyrimidin-4-one]	0%	48%	
670 nM	O=c1[nH]c(-c2ccncc2)nc2c1c(C(F)(F)F)nn2C1CCCC1 [Example 96]			
6700 nM	Cc1[nH]n(Cc2ccc([N+](=O)[O-])cc2)c2nc(-c3ccncc3)nc(=O)c1-2 [Example 105, 1-(4-Nitrophenylmethyl)-3-methyl-6-(4-pyridyl)pyrazolo[3,4-d]pyrimidin-4-one]			
	CSc1[nH]n(C2CCCC2)c2nc(-c3ccncc3)nc(=O)c1-2 [Example 19c, 1-Cyclopentyl-3-methylthio-6-(4-pyridyl)pyrazolo[3,4-d]pyrimidin-4-one]	32%	74%	
580 nM	CCc1[nH]n(C2CCCC2)c2nc(-c3ccnc(Cl)c3)nc(=O)c1-2 [Example 125b, 1-Cyclopentyl-3-ethyl-6-(2-chloro-4-pyridyl)pyrazolo[3,4-d]pyrimidin-4-one]	59%		Percent Inhibition cGMP-PDE I (cGMP-PDE I; 0.1 μM): 27%
	Cc1[nH]n(Cc2ccc(C(=O)O)cc2)c2nc(-c3ccncc3)nc(=O)c1-2 [Example 111, 1-(4-Carboxylphenylmethyl)-3-methyl-6-(4-pyridyl)-pyrazolo[3,4-d]pyrimidin-4-one]	0%	24%	
780 nM	CCc1[nH]n(C2CCCC2)c2nc(-c3ccc4nccn4c3)nc(=O)c1-2 [Example 16c, 1-Cyclopentyl-3-ethyl-6-(6-imidazo[1,2-a]pyridinyl)pyrazolo[3,4-d]pyrimidin-4-one]	69%		Percent Inhibition cGMP-PDE I (cGMP-PDE I; 0.1 μM): 35%
	CCc1[nH]n(C(C)(C)C)c2nc(-c3ccncc3OC)nc(=O)c1-2 [Example 136, 1-tert-Butyl-3-ethyl-6-(3-methoxy-4-pyridyl)pyrazolo[3,4-d]pyrimidin-4-one]	73%		Percent Inhibition cGMP-PDE I (cGMP-PDE I; 0.01 μM): 28%; Percent Inhibition cGMP-PDE I (cGMP-PDE I; 0.1 μM): 39%
	CCc1nn(C2CCCC2)c2nc(-c3cccn4ccnc34)[nH]c(=O)c12 [Example 114c, 1-cyclopentyl-3-ethyl-6-(8-imidazo[1,2-a]pyridine)pyrazolo[3,4-d]pyrimidin-4-one methanesulfonate]	5%	52%	

IC50 (cGMP-PDE I)	Structure (SMILES)	Percent Inhibition cGMP-PDE I (cGMP-PDE I; 1 μM)	Percent Inhibition cGMP-PDE I (cGMP-PDE I; 10 μM)	further results
	CC(C)(C)c1nn(C2CCCC2)c2nc(-c3ccncc3)[nH]c(=O)c12 [Example 95]	9%	32%	
	CCc1[nH]n(C2CCCC2)c2nc(-n3ccnc3)nc(=O)c1-2 [Example 122d, 1-Cyclopentyl-3-ethyl-6-(1-imidazolyl)pyrazolo[3,4-d]pyrimidin-4-one]	16%	46%	
680 nM	CC(C)(C)n1ncc2c(=O)[nH]c(-c3ccncc3)nc21 [Example 92]			
	Cc1[nH]n(C2CCCC2)c2nc(C3CCN(C(=O)C(F)(F)F)CC3)nc(=O)c1-2 [Example 116, 1-Cyclopentyl-3-methyl-6-(1-trifluoroacetyl-4-piperidinyl)pyrazolo[3,4-d]pyrimidin-4-one]	34%		
	O=c1nc(-c2ccncc2)nc2n(C3CCCC3)[nH]c(Cc3ccccc3)c1-2 [Example 15e, 1-Cyclopentyl-3-phenylmethyl-6-(4-pyridyl)-pyrazolo[3,4-d]pyrimidin-4-one]	38%	43%	
	Cc1n[nH]c2nc(-c3ccncc3)[nH]c(=O)c12 [Example 76]	0%	24%	
	Cc1nn(C2CCCC2)c2nc(C3CCNCC3)[nH]c(=O)c12 [Example 109, 1-Cyclopentyl-3-methyl-6-(4-piperidinyl)-pyrazolo[3,4-d]-pyrimidin-4-one monohydrochloride. 1/2 hydrate]	7%	13%	
	CCc1[nH]n(C2CCCC2)c2nc(-c3cccnc3)nc(=O)c1-2 [Example 137, 1-Cyclopentyl-3-ethyl-6-(3-pyridyl)pyrazolo[3,4-d]pyrimidin-4-one]	64%		Percent Inhibition cGMP-PDE I (cGMP-PDE I; 0.1 μM): 27%
	Cc1nn(Cc2cccc(C#N)c2)c2nc(-c3ccncc3)[nH]c(=O)c12 [Example 86]		41%	
	Cc1[nH]n(Cc2cc([N+](=O)[O-])ccc2Cl)c2nc(-c3ccncc3)nc(=O)c1-2 [Example 106, 1-(2-Chloro-5-nitrophenylmethyl)-3-methyl-6-(4-pyridyl)pyrazolo[3,4-d]pyrimidin-4-one]	24%	63%	
12400 nM	Cc1[nH]n(C2CCCO2)c2nc(-c3ccncc3)nc(=O)c1-2 (stereo not shown) [Example 104, 1-(2-tetrahydrofuranyl)-3-methyl-6-(4-pyridyl)-pyrazolo-[3,4-d]pyrimidin-4-one]			
	Cc1[nH]n(Cc2cccc(C(=O)O)c2)c2nc(-c3ccncc3)nc(=O)c1-2 [Example 112, 1-(3-Carboxyphenylmethyl)-3-methyl-6-(4-pyridyl)-pyrazolo[3,4-d]pyrimidin-4-one]	4%	52%	
240 nM	CCc1[nH]n(C2CCCC2)c2nc(-c3ccnc(-n4ccnc4)c3)nc(=O)c1-2 [Example 121c, 1-Cyclopentyl-3-ethyl-6-[2-(1-imidazolyl)-4-pyridyl]pyrazolo[3,4-d]pyrimidin-4-one]	68%		Percent Inhibition cGMP-PDE I (cGMP-PDE I; 0.1 μM): 11%
1780 nM	Cc1nn(C2CCOC2)c2nc(-c3ccncc3)[nH]c(=O)c12 (stereo not shown) [Example 101, 1-(3-Tetrahydrofuranyl)-3-methyl-6-(4-pyridyl)-pyrazolo-[3,4-d]pyrimidin-4-one-1/4 hydrate]			
3700 nM	O=c1[nH]c(-c2ccncc2)nc2c1cnn2C1CCCC1 [Example 71]			
1900 nM	Cc1[nH]n(C2CCC2)c2nc(-c3ccncc3)nc(=O)c1-2 [Example 102, 1-Cyclobutyl-3-methyl-6-(4-pyridyl)-pyrazolo-[3,4-d]pyrimidin-4-one]			
1800 nM	O=c1[nH]c(-c2ccncc2)nc2c1c(Br)nn2C1CCCC1 [Example 73]			
480 nM	CCc1nn(C(C)(C)C)c2nc(-c3ccncc3)[nH]c(=O)c12 [Example 94]			
